The values that follow come from patent US9765018B2, “IDO inhibitors” (BRISTOL-MYERS SQUIBB COMPANY, priority 2013, dated 2017).

The assay deals with IDO (Homo sapiens (Human), UniProt P14902). Kind of assay: LLE_IDO_ABS_DR (IDO assay, method not described).
Chain of IDO (P14902 whole entry): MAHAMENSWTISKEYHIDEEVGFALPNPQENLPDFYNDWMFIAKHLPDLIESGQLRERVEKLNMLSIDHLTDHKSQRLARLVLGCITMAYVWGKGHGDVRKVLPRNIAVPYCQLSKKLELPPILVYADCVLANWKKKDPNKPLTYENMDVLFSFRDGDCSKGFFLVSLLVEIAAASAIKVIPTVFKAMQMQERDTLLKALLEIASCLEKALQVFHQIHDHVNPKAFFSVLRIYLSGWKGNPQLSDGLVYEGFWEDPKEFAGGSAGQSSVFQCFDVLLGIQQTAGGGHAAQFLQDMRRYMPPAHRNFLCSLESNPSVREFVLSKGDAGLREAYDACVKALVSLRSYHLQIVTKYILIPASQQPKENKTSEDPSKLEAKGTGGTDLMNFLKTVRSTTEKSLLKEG
As to `Cc1ccc(NC(=O)Nc2cc(-c3ccccc3C(=O)O)ccc2OCc2ccccc2)cc1` [Example 294], the IC50 (usually the concentration at which inhibition is half-maximal) was 520 nM.
Then `CCCOc1c(C/C=C/c2ccccc2)cc(-c2ccccc2-c2nnn[nH]2)cc1NC(=O)Nc1ccc(C)cc1` [Example 34, (E)-1-(5-Cinnamyl-4-propoxy-2′-(1H-tetrazol-5-yl)biphenyl-3-yl)-3-p-tolylurea], with 170 nM; and `CCC[C@@H](Oc1ccc(-c2ccccc2-c2nnn[nH]2)cc1NC(=O)Nc1ccc(C)cc1)c1ccccc1` [Example 273], with 40 nM; and `CCCCc1cc(-c2ccccc2C(=O)O)cc(NC(=O)Nc2ccc(C)cc2)c1OCCC` [Example 23, 3′-Butyl-4′-propoxy-5′-(3-(p-tolyl)ureido)-[1,1′-biphenyl]-2-carboxylic acid], with 130 nM.
Then `Cc1ccc(NC(=O)Nc2cc(-c3ccc(Cl)cc3-c3nnn[nH]3)ccc2Oc2ccccc2C(C)(C)C)cc1` [Example 199, 1-(4-(2-tert-butylphenoxy)-4′-chloro-2′-(1H-tetrazol-5-yl)biphenyl-3-yl)-3-p-tolylurea], with 90 nM; and `CCCC(CCC)Oc1c(Br)cc(-c2ccccc2-c2nnn[nH]2)cc1NC(=O)Nc1ccc(C)cc1` [Example 286], with 470 nM; and `CCCOc1c(CCC)cc(-c2cc(F)ccc2C(=O)O)cc1NC(=O)Nc1ccc(C)cc1` [Example 18, 5-Fluoro-4′-propoxy-3′-propyl-5′-(3-(p-tolyl)ureido)-[1,1′-biphenyl]-2-carboxylic acid], with 310 nM.
In the case of `CCC(Oc1ccc(-c2cc(F)ccc2C(=O)O)cc1NC(=O)Nc1ccc(C)cc1)c1ccccc1` (centres unmarked) [Example 268], the midpoint of inhibition, the IC50, lay at 690 nM. This IC50 lies about 2.2-fold higher than the previous one.
Then `Cc1cccc(NC(=O)Nc2cc(-c3ccccc3-c3nnn[nH]3)cc(CC3CC3)c2OCCC(F)(F)F)c1` [Example 315], with 80 nM; and `Cc1cccc(NC(=O)Nc2cc(-c3ccccc3-c3nnn[nH]3)cc(CC3CC3)c2OC2CCOCC2)c1` [Example 326], with 130 nM; and `CCCOc1c(/C=C/C=C(F)F)cc(-c2cc(F)ccc2C(=O)O)cc1NC(=O)Nc1ccc(C)cc1` [Example 33, (E)-3′-(4,4-Difluorobuta-1,3-dien-1-yl)-5-fluoro-4′-propoxy-5′-(3-(p-tolyl)ureido)-[1,1′-biphenyl]-2-carboxylic acid], with 110 nM.
Consider `Cc1ccc(NC(=O)Nc2cc(-c3ccccc3-c3nn[nH]n3)ccc2OC(C(C)C)C(C)C)cc1` [Example 9, 1-(4-((2,4-Dimethylpentan-3-yl)oxy)-2′-(1H-tetrazol-5-yl)-[1,1′-biphenyl]-3-yl)-3-(p-tolyl)urea], for which the IC50 turned out to be 30 nM.
Then `Cc1ccc(NC(=O)Nc2cc(-c3ccccc3-c3nnn[nH]3)ccc2OC(CCC(F)(F)F)c2ccc(Cl)cc2)cc1` (centres unmarked) [Example 312], with 80 nM; and `CCCC(Oc1ccc(-c2cc(F)ccc2C(=O)O)cc1NC(=O)Nc1ccc(C)cc1)c1ccccc1Cl` (centres unmarked) [Example 306], with 5450 nM; and `Cc1ccc(NC(=O)Nc2cc(-c3cc(F)ccc3C(=O)O)ccc2OC(CCC(F)(F)F)c2ccccc2Cl)cc1` (centres unmarked) [Example 267, 4′-(1-(2-Chlorophenyl)-4,4,4-trifluorobutoxy)-5-fluoro-3′-(3-(p-tolyl)ureido)-[1,1′-biphenyl]-2-carboxylic acid], with 390 nM.
With `CC(C)(C)c1ccccc1Oc1ccc(-c2cncc(C(=O)O)c2)cc1NC(=O)Nc1ccc(OC(F)(F)F)cc1` [Example 266, 5-(4-(2-tert-butylphenoxy)-3-(3-(4-(trifluoromethoxy)phenyl)ureido)phenyl)nicotinic acid], the IC50 was found to be 2150 nM.
As to `CCC[C@H](Oc1ccc(-c2cc(F)ccc2C(=O)O)cc1NC(=O)Nc1ccc(C)cc1)c1ccccc1` [Example 275], the midpoint of inhibition, the IC50, lay at 1740 nM.
Then `Cc1ccc(NC(=O)Nc2cc(-c3ccccc3-c3nnn[nH]3)cc(CC3CC3)c2OCC2CC2)cc1` [Example 324], with 1070 nM; and `CCC[C@H](Oc1ccc(-c2ccccc2-c2nnn[nH]2)cc1NC(=O)Nc1ccc(C)cc1)c1ccccc1` [Example 274], with 3510 nM.
Then `Cc1ccc(NC(=O)Nc2cc(-c3cc(F)ccc3C(=O)O)ccc2OC(CCN2CCOCC2)c2ccccc2)cc1` (centres unmarked) [Example 307], with 40 nM; and `CCCCc1cc(-c2cc(F)ccc2C(=O)O)cc(NC(=O)Nc2ccc(C)cc2)c1OCc1ccccc1` [Example 40, 4′-(Benzyloxy)-3′-butyl-5-fluoro-5′-(3-p-tolylureido)biphenyl-2-carboxylic acid], with 130 nM; and `O=C(Nc1ccc(OC(F)(F)F)cc1)Nc1cc(-c2ccccc2-c2nnn[nH]2)cc(CC2CC2)c1Oc1ccccc1` [Example 320], with 220 nM.
Then `C/C=C/Cc1cc(-c2ccccc2C(=O)O)cc(NC(=O)Nc2ccc(C)cc2)c1OCCC` [Example 20, (E)-3′-(But-2-en-1-yl)-4′-propoxy-5′-(3-(p-tolyl)ureido)-[1,1′-biphenyl]-2-carboxylic acid], with 170 nM; and `Cc1cccc(NC(=O)Nc2cc(-c3ccccc3-c3nnn[nH]3)cc(CC3CC3)c2OCC2CC2)c1` [Example 325], with 2970 nM; and `O=C(Nc1ccc(F)cc1F)Nc1cc(-c2ccccc2-c2nnn[nH]2)cc(CC2CC2)c1Oc1ccccc1` [Example 329], with 1660 nM.
As to `CCCOc1c(C/C=C/c2ccccc2)cc(-c2ccccc2-c2nnn[nH]2)cc1NC(=O)Nc1ccccc1F` [Example 38, (E)-1-(5-Cinnamyl-4-propoxy-2′-(1H-tetrazol-5-yl)biphenyl-3-yl)-3-(2-fluorophenyl)urea], the half-inhibitory concentration (IC50) came out at 210 nM.
The compound `CCC(Oc1ccc(-c2ccccc2-c2nnn[nH]2)cc1NC(=O)Nc1ccc(C)cc1)c1ccccc1` (centres unmarked) [Example 271] came in with an IC50 of 30 nM.
Then `CCCCc1cc(-c2cc(F)ccc2C(=O)O)cc(NC(=O)Nc2ccc(C)cc2)c1OCCC` [Example 24], with 80 nM.
Compound `Cc1ccc(NC(=O)Nc2cc(-c3ccccc3C(=O)O)ccc2OC(C(C)C)C(C)C)cc1` [Example 10, 4′-((2,4-Dimethylpentan-3-yl)oxy)-3′-(3-(p-tolyl)ureido)-[1,1′-biphenyl]-2-carboxylic acid] came in with a half-inhibitory concentration (IC50) of 720 nM.
Then `Cc1ccc(NC(=O)Nc2cc(-c3ccccc3-c3nnn[nH]3)cc(CC3CC3)c2Oc2ccccc2)cc1` [Example 322], with 460 nM; and `CCCOc1c(CCC)cc(-c2ccccc2C(=O)O)cc1NC(=O)Nc1ccc(C)cc1` [Example 17, 4′-Propoxy-3′-propyl-5′-(3-(p-tolyl)ureido)-[1,1′-biphenyl]-2-carboxylic acid], with 200 nM.
Then `C/C=C/Cc1cc(-c2ccccc2C(=O)O)cc(NC(=O)Nc2ccc(C)cc2)c1OCc1ccccc1` [Example 26, (E)-4′-(Benzyloxy)-3′-(but-2-en-1-yl)-5′-(3-(p-tolyl)ureido)-[1,1′-biphenyl]-2-carboxylic acid], with 650 nM.
Then `CCC[C@@H](Oc1ccc(-c2cc(F)ccc2C(=O)O)cc1NC(=O)Nc1ccc(C)cc1)c1ccccc1` [Example 270], with 20 nM; and `O=C(Nc1ccccc1F)Nc1cc(-c2cc(F)ccc2C(=O)O)cc(/C=C/C=C(F)F)c1OCCC(F)(F)F` [Example 281], with 820 nM; and `O=C(Nc1ccc(F)cc1F)Nc1cc(-c2ccccc2-c2nnn[nH]2)cc(CC2CC2)c1OCC1CC1` [Example 277], with 30 nM.
